Reference: patent publication US20250040503A1, “METHOD FOR PRODUCING HAPLOID, AND DOUBLED HAPLOID BETA VULGARIS PLANTS BY MICROSPORE CULTURE” (KWS SAAT SE & Co. KGaA, priority 2021, published 2025)
Entries after “also recorded” stand apart in the source; their conditions may differ.

Tested on: Beta vulgaris (sugar beet) microspores
Assay: Callus induction from isolated sugar beet microspores (microspore culture)
Type: cell-based
Settings: for callus induction potential in comparison to TSA: comparator TSA 5 μM, same time point, duration and buffer
Text: The experimental set-up is detailed in the below Examples. In the Figures, each column represents a different genotype. […] Time point, duration and buffer used were always identical for all treatments in the different rows. The different rows thus only differ from each other in the kind of inhibitor used.
Bracteoles are cut off the inflorescence and buds bigger than 1.8 mm are removed. Remaining part is divided into smaller pieces, preferably pieces of 1-1.5 cm. Buds smaller than 1.8 mm contain typically microspores at the tetrad and uninuclear developmental stage, which are the optimal developmental stages for further progressing. However, it should be noted that due to broad variation of different genotypes and donor sources (e.g., monogerm and multigerm), the correlation between the maximum flower bud size and nuclear stages of the microspores needs to be established for each genotype individually. The determination of the nuclear stages is carried out using a fluorescence-based staining method. The method contains fixation of the cells for instances with Ethanol acetic acid and DAPI staining (Kim, Moon-Za, and In-Chang Jang. “Rapid Assessment of Microspore Development Stage in Pepper Using DAPI and Ferric chloride.” Journal of Plant Biotechnology 2.3 (2000): 129-134.).
The flower shoot segments are transferred to isolation buffer, e.g., in a blending device and 40 ml (isolation buffer, Table 1) is added. The Isolation buffer contains macro- and microsalts, amino acids, monosaccharides and one or more complex protein compositions, pH is adjusted to pH 7.5. The complex protein composition or its source comprises preferably hydrolysed or partially hydrolysed protein matter or protein source. It can derive from any source that is known or that be applicable in addition, such as milk (such as, casein, whey), animal (such as, meat, fish), cereal (such as, rice, corn), plant (such as, soybean) or its combination. This proteinoid comprises milk protein isolates, as described herein lactoprotein concentrate, casein isolates, casein hydrolysate, lactalbumin, casein-sodium or calcium caseinate, full cow's milk, partially or completely skimmed milk, soy protein isolate, soybean protein concentrate etc. In one embodiment, complex protein composition comprises the protein source of the milk protein deriving from bovine milk.
The material is homogenized, e.g., by means of a homogenizer such as a Waring blender or sonication device at around 3000 rpm for 1 min. The crude cell suspension is passed stepwise through cell strainers of pore sizes between 25 μm and 100 μm. The purified suspension is transferred into tubes for subsequent centrifugation at ˜200 g for 3 min.
The supernatant is removed and the pellet is resuspended in a suitable amount of isolation buffer. An aliquot of the cell solution is taken for evaluation of the number of cells per ml by means of a counting chamber. Cell density is adjusted preferably to a cell density of 25,000 to 500,000 cells with TM media.
If the HDACi trichostatin A (TSA) is used, it is dissolved in dimethylsulfoxide (DMSO) to a final concentration of between 1 nM and 10 μM, preferably 100 nM to 10 μM, more preferably 1 μM to 10 μM, depending on the genotype and the donor sources (e.g., monogerm and multigerm). Other non-limiting examples of HDACi which may be used belong to the class of hydroxamic acids and hydroxamates, such as vorinostat (SAHA), belinostat (PXD101), LAQ824, and panobinostat (LBH589). Other non-limiting examples of HDACis for use according to the invention include cyclic tetrapeptides (such as trapoxin B) and depsipeptides, such as romidepsin (FK228), benzamides such as entinostat (MS-275), C1994, and mocetinostat (MGCD0103), electrophilic ketones, and aliphatic acid compounds such as phenylbutyrate and valproic acid.
After 1 to 10 days incubation at 32° C. the TSA is removed by centrifugation preferably at ˜200 g.

## Cc1sc2c(c1C)C(c1ccc(Cl)cc1)=N[C@@H](CC(N)=O)c1nnc(C)n1-2 [CPI-203]
CPI-203 1 μM, 2.5 μM and 5 μM, 6 genotypes, FIG. 6
  callus induction: slight positive effect; also recorded: very small, but positive, effect
  callus induction potential in comparison to TSA: performed worse than TSA

## CC(=O)N1c2ccc(-c3ccc(C(=O)O)cc3)cc2[C@H](Nc2ccc(Cl)cc2)C[C@@H]1C [I-Bet 726]
I-Bet 726 1 μM, 2.5 μM and 5 μM, FIG. 7
  callus induction: No callus induction

## O=C(CCCCCCC(=O)Nc1ccccc1)NO [SAHA, vorinostat]
SAHA 1 μM and 5 μM vs TSA 5 μM, microspore culture
  toxicity in comparison to TSA: more toxic
SAHA 1 μM and 5 μM, same buffer as TSA, six genotypes, FIG. 4
  callus induction: good effect on some genotypes
  callus induction potential in comparison to TSA: less effective than TSA

## CC(/C=C/C(=O)NO)=C\[C@@H](C)C(=O)c1ccc(N(C)C)cc1 [TSA, trichostatin A]
TSA 5 μM, six genotypes, positive control of FIG. 4 to FIG. 7
  callus induction: strong callus induction in all six genotypes
TSA in the lower μM or even nM range and in higher concentrations, data not shown
  callus induction performance at other concentrations: performed well
  callus induction potential in comparison to TSA: performed best
